Results published in PubChem BioAssay AID1963868 (Molecular Pharmacology Branch, DTP, NCI, 2024).
pIC50: −log10 of the molar value.

Tested on: KRAS PDC tumor spheroids (HUVEC+MSC), viability
Experiment: Anticancer human tumor 254851-301-R-J1-PDC patient-derived colon carcinoma cell line growth inhibition [KRAS2]
Details: for pIC50: curve of first compound; for viability, T/C: stronger effect = lower value
Procedure, shortened: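 Combination screen of spheroid viability in tumor-cell co-cultures with endothelial (HUVEC) and mesenchymal stem cell stroma. Each agent was tested in half-log dilutions, topping at clinical Cmax or at 10 microM without a known Cmax.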

[1] = second compound 0.0316 µM, first compound 0.0316 µM
[2] = second compound 0.0316 µM, first compound 0.1 µM
[3] = second compound 0.0316 µM, first compound 0.316 µM
[4] = second compound 0.0316 µM, first compound 1 µM
[5] = second compound 0.0316 µM, first compound 3.16 µM
[6] = second compound 0.0316 µM, first compound 10 µM
[7] = second compound 0.1 µM, first compound 0.0316 µM
[8] = second compound 0.1 µM, first compound 0.1 µM
[9] = second compound 0.1 µM, first compound 0.316 µM
[10] = second compound 0.1 µM, first compound 1 µM
[11] = second compound 0.1 µM, first compound 3.16 µM
[12] = second compound 0.1 µM, first compound 10 µM
[13] = second compound 0.316 µM, first compound 0.0316 µM
[14] = second compound 0.316 µM, first compound 0.1 µM
[15] = second compound 0.316 µM, first compound 0.316 µM
[16] = second compound 0.316 µM, first compound 1 µM
[17] = second compound 0.316 µM, first compound 3.16 µM
[18] = second compound 0.316 µM, first compound 10 µM
[19] = second compound 1 µM, first compound 0.0316 µM
[20] = second compound 1 µM, first compound 0.1 µM
[21] = second compound 1 µM, first compound 0.316 µM
[22] = second compound 1 µM, first compound 1 µM
[23] = second compound 1 µM, first compound 3.16 µM
[24] = second compound 1 µM, first compound 10 µM
[25] = second compound 3.16 µM, first compound 0.0316 µM
[26] = second compound 3.16 µM, first compound 0.1 µM
[27] = second compound 3.16 µM, first compound 0.316 µM
[28] = second compound 3.16 µM, first compound 1 µM
[29] = second compound 3.16 µM, first compound 3.16 µM
[30] = second compound 3.16 µM, first compound 10 µM
[31] = second compound 0.1 µM, first compound 0.000316 µM
[32] = second compound 0.1 µM, first compound 0.001 µM
[33] = second compound 0.1 µM, first compound 0.00316 µM
[34] = second compound 0.1 µM, first compound 0.01 µM
[35] = second compound 0.316 µM, first compound 0.000316 µM
[36] = second compound 0.316 µM, first compound 0.001 µM
[37] = second compound 0.316 µM, first compound 0.00316 µM
[38] = second compound 0.316 µM, first compound 0.01 µM
[39] = second compound 1 µM, first compound 0.000316 µM
[40] = second compound 1 µM, first compound 0.001 µM
[41] = second compound 1 µM, first compound 0.00316 µM
[42] = second compound 1 µM, first compound 0.01 µM
[43] = second compound 3.16 µM, first compound 0.000316 µM
[44] = second compound 3.16 µM, first compound 0.001 µM
[45] = second compound 3.16 µM, first compound 0.00316 µM
[46] = second compound 3.16 µM, first compound 0.01 µM
[47] = second compound 10 µM, first compound 0.0316 µM
[48] = second compound 10 µM, first compound 0.1 µM
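Further: spheroids exposed to compounds for seven days before readout.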
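Wherever viability, T/C is given: 100% = DMSO vehicle control luminescence of the spheroids.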

CC1(C)CCC(CN2CCN(c3ccc(C(=O)NS(=O)(=O)c4ccc(NCC5CCOCC5)c([N+](=O)[O-])c4)c(Oc4cnc5[nH]ccc5c4)c3)CC2)=C(c2ccc(Cl)cc2)C1 + C=CC(=O)N1CCN(c2nc(OCC3CCCN3C)nc3c2CCN(c2cccc4cccc(C)c24)C3)CC1CC#N
pIC50 (second compound 0.0316 µM): < 5.00
pIC50 (second compound 0.1 µM): < 5.00
pIC50 (second compound 0.316 µM): < 5.00
pIC50 (second compound 1 µM): 5.19
pIC50 (second compound 3.16 µM): 6.43
viability, T/C [1]: 95.8%
viability, T/C [2]: 101%
viability, T/C [3]: 97.3%
viability, T/C [4]: 98%
viability, T/C [5]: 95.6%
viability, T/C [6]: 90%
viability, T/C [7]: 98.5%
viability, T/C [8]: 106%
viability, T/C [9]: 92.4%
viability, T/C [10]: 100%
viability, T/C [11]: 90.3%
viability, T/C [12]: 86.1%
viability, T/C [13]: 106%
viability, T/C [14]: 107%
viability, T/C [15]: 80.9%
viability, T/C [16]: 85.3%
viability, T/C [17]: 81%
viability, T/C [18]: 73.8%
viability, T/C [19]: 88%
viability, T/C [20]: 106%
viability, T/C [21]: 101%
viability, T/C [22]: 81.4%
viability, T/C [23]: 70.7%
viability, T/C [24]: 37.8%
viability, T/C [25]: 57%
viability, T/C [26]: 56.2%
viability, T/C [27]: 45%
viability, T/C [28]: 36.4%
viability, T/C [29]: 0.19%
viability, T/C [30]: 0.19%

COc1cc2nccc(Oc3ccc(NC(=O)C4(C(=O)Nc5ccc(F)cc5)CC4)cc3)c2cc1OC + C=CC(=O)N1CCN(c2nc(OCC3CCCN3C)nc3c2CCN(c2cccc4cccc(C)c24)C3)CC1CC#N
pIC50 (second compound 0.0316 µM): < 5.00
pIC50 (second compound 0.1 µM): 5.04
pIC50 (second compound 0.316 µM): 5.04
pIC50 (second compound 1 µM): 5.17
pIC50 (second compound 3.16 µM): 6.08
viability, T/C [1]: 98.5%
viability, T/C [2]: 103%
viability, T/C [3]: 96.2%
viability, T/C [4]: 112%
viability, T/C [5]: 100%
viability, T/C [6]: 52.3%
viability, T/C [7]: 115%
viability, T/C [8]: 111%
viability, T/C [9]: 109%
viability, T/C [10]: 94.1%
viability, T/C [11]: 103%
viability, T/C [12]: 45%
viability, T/C [13]: 111%
viability, T/C [14]: 106%
viability, T/C [15]: 110%
viability, T/C [16]: 110%
viability, T/C [17]: 96%
viability, T/C [18]: 45.8%
viability, T/C [19]: 108%
viability, T/C [20]: 104%
viability, T/C [21]: 99.3%
viability, T/C [22]: 98.1%
viability, T/C [23]: 80.5%
viability, T/C [24]: 34.2%
viability, T/C [25]: 56.9%
viability, T/C [26]: 64.8%
viability, T/C [27]: 66.4%
viability, T/C [28]: 47.6%
viability, T/C [29]: 2.41%
viability, T/C [30]: 0.18%

Cn1ncnc1[C@H]1c2n[nH]c(=O)c3cc(F)cc(c23)N[C@@H]1c1ccc(F)cc1 + COc1cc2nc(C)nc(NC(C)c3cc(N)cc(C(F)(F)F)c3)c2cc1OC1CCOC1
pIC50 (second compound 0.1 µM): < 7.00
pIC50 (second compound 0.316 µM): < 7.00
pIC50 (second compound 1 µM): < 7.00
pIC50 (second compound 3.16 µM): < 7.00
pIC50 (second compound 10 µM): < 7.00
viability, T/C [31]: 111%
viability, T/C [32]: 95.6%
viability, T/C [33]: 104%
viability, T/C [34]: 100%
viability, T/C [7]: 99.6%
viability, T/C [8]: 101%
viability, T/C [35]: 95.9%
viability, T/C [36]: 100%
viability, T/C [37]: 93.5%
viability, T/C [38]: 80.9%
viability, T/C [13]: 84.8%
viability, T/C [14]: 89.5%
viability, T/C [39]: 86.9%
viability, T/C [40]: 81.6%
viability, T/C [41]: 83.1%
viability, T/C [42]: 86.4%
viability, T/C [19]: 85.9%
viability, T/C [20]: 81.3%
viability, T/C [43]: 86.5%
viability, T/C [44]: 83.8%
viability, T/C [45]: 95.9%
viability, T/C [46]: 86%
viability, T/C [25]: 87.2%
viability, T/C [26]: 80.9%
viability, T/C (second compound 10 µM, first compound 0.000316 µM): 77.9%
viability, T/C (second compound 10 µM, first compound 0.001 µM): 83%
viability, T/C (second compound 10 µM, first compound 0.00316 µM): 80.8%
viability, T/C (second compound 10 µM, first compound 0.01 µM): 78.1%
viability, T/C [47]: 69.2%
viability, T/C [48]: 74.7%

CC(C)NCC(C(=O)N1CCN(c2ncnc3c2C(C)CC3O)CC1)c1ccc(Cl)cc1 (stereo not given) + CC1OCC2(CCN(c3cnc(Sc4ccnc(N)c4Cl)c(N)n3)CC2)C1N
pIC50 (second compound 0.1 µM): < 5.00
pIC50 (second compound 0.316 µM): < 5.00
pIC50 (second compound 1 µM): < 5.00
pIC50 (second compound 3.16 µM): < 5.00
pIC50 (second compound 10 µM): < 5.00
viability, T/C [7]: 104%
viability, T/C [8]: 97.1%
viability, T/C [9]: 103%
viability, T/C [10]: 93.2%
viability, T/C [11]: 102%
viability, T/C [12]: 85.3%
viability, T/C [13]: 93%
viability, T/C [14]: 86.6%
viability, T/C [15]: 75.4%
viability, T/C [16]: 79.6%
viability, T/C [17]: 79.5%
viability, T/C [18]: 88.4%
viability, T/C [19]: 72.4%
viability, T/C [20]: 72.4%
viability, T/C [21]: 83.1%
viability, T/C [22]: 75.6%
viability, T/C [23]: 69.6%
viability, T/C [24]: 68.5%
viability, T/C [25]: 58.4%
viability, T/C [26]: 68.9%
viability, T/C [27]: 64.9%
viability, T/C [28]: 66.4%
viability, T/C [29]: 67.4%
viability, T/C [30]: 70.8%
viability, T/C [47]: 58.6%
viability, T/C [48]: 64.5%
viability, T/C (second compound 10 µM, first compound 0.316 µM): 65.7%
viability, T/C (second compound 10 µM, first compound 1 µM): 60.9%
viability, T/C (second compound 10 µM, first compound 3.16 µM): 55.9%
viability, T/C (second compound 10 µM, first compound 10 µM): 58.4%

CC(=O)Nc1cccc(-n2c(=O)n(C3CC3)c(=O)c3c(Nc4ccc(I)cc4F)n(C)c(=O)c(C)c32)c1 + C=CC(=O)N1CCN(c2nc(OCC3CCCN3C)nc3c2CCN(c2cccc4cccc(C)c24)C3)CC1CC#N
pIC50 (second compound 0.0316 µM): 8.25
pIC50 (second compound 0.1 µM): 8.24
pIC50 (second compound 0.316 µM): 8.20
pIC50 (second compound 1 µM): 8.24
pIC50 (second compound 3.16 µM): 9.24
viability, T/C (second compound 0.0316 µM, first compound 0.0001 µM): 103%
viability, T/C (second compound 0.0316 µM, first compound 0.000316 µM): 94.3%
viability, T/C (second compound 0.0316 µM, first compound 0.001 µM): 89.5%
viability, T/C (second compound 0.0316 µM, first compound 0.00316 µM): 72.1%
viability, T/C (second compound 0.0316 µM, first compound 0.01 µM): 29.2%
viability, T/C [1]: 3.04%
viability, T/C (second compound 0.1 µM, first compound 0.0001 µM): 98.1%
viability, T/C [31]: 106%
viability, T/C [32]: 95.4%
viability, T/C [33]: 77.9%
viability, T/C [34]: 25.1%
viability, T/C [7]: 2.8%
viability, T/C (second compound 0.316 µM, first compound 0.0001 µM): 102%
viability, T/C [35]: 114%
viability, T/C [36]: 93.5%
viability, T/C [37]: 84.9%
viability, T/C [38]: 27.5%
viability, T/C [13]: 2.51%
viability, T/C (second compound 1 µM, first compound 0.0001 µM): 106%
viability, T/C [39]: 109%
viability, T/C [40]: 92.6%
viability, T/C [41]: 83.4%
viability, T/C [42]: 19.1%
viability, T/C [19]: 1.86%
viability, T/C (second compound 3.16 µM, first compound 0.0001 µM): 76.9%
viability, T/C [43]: 52.7%
viability, T/C [44]: 40.3%
viability, T/C [45]: 39.5%
viability, T/C [46]: 0.5%
viability, T/C [25]: 0.93%
